Experimental data taken from patent US20070270462A1, “8-hydroxyquinoline compounds for treating a polyglutamine (polyQ)-expansion disease” (priority 2005, published 2007).

What was measured:
egfp-alone = assay: Western blotting of cell extracts, egfp-alone expression; type: cell-based
Source text: (§1) PolyQ-htt-GFP fusion constructs, in which the polyglutamine region is encoded by CAA and CAG-containing tandem repeats ([…]) [SEQ ID NO: 1], human polyglutaminen, were obtained from the Hereditary Disease Foundation, Santa Monica, Calif., USA. PC12 and HEK293 cells were maintained in MEM supplemented with 10% v/v FBS, switched to Opti-MEM without serum for 6 hrs during transfection using Lipofectamine 2000 (Invitrogen, Carlsbad, Calif., USA), and returned to serum-containing medium thereafter (up to 48 hours). […] Control cultures received equivalent amounts of DMSO-containing vehicle (<0.1% w/v DMSO, final concentration).
HEK293 or PC12 cells were lysed in PBS buffer containing 1% v/v Triton X-100 and protease inhibitor cocktail (Roche, Indianapolis, Ind.), and passed through a 28 gauge needle to ensure the release of Htt inclusions from the nuclei. Whole mouse brains were homogenized in 50 mM Tris-HCl (pH 7.4), 150 mM NaCl, 1% v/v Triton X-100 and complete protease inhibitor cocktail. Brain homogenate was pre-cleared by centrifuging at 7,500 g for 90 s at 4° C. The supernatant was passed through a 28-gauge needle and boiled in SDS sample buffer for 10 min. Fifty μg of total protein was loaded onto 10% w/v SDS gel containing a 4% w/v stacking gel. […]

R6/2 mice = assay: Lifespan (survival) of R6/2 mice; type: in vivo, mouse; settings: oral CQ 30 mg/kg/day
Experimental: A colony of transgenic mice strain R6/2 that is heterozygous for htt exon1 (containing 145 CAG repeats) was maintained, with founders originating and available from The Jackson Laboratory (Bar Harbor, Me., USA). Male transgenic R6/2 mice were bred with background strain (B6CBAFI/J) females. Genotyping was done according to Hockly et al, Brain Res Bull 61, 469-479, 2003. CQ in water was orally administered to mice at 30 mg/kg/day starting at 3 weeks of age and continued until the mice were deceased or sacrificed for tissues. Littermate R6/2 mice were gavaged with water vehicle alone. At the end of CQ treatment mice were anesthetized and transcardially perfused with PBS followed by 4% v/v paraformaldehyde. Blood glucose levels were determined after at least 8 hrs of fasting in 11-week old mice (n=6 for wild-type, n=4 for vehicle-treated R6/2, n=6 for CQ-treated R6/2 littermates) using a 2300 STAT Plus glucose analyzer (YSI, Yellowsonte, Ohio, USA). Fasting blood insulin levels in animals fasted for 8 hrs were measured using an Ultra Sensitive Rat Insulin ELISA Kit (Crystal Chem, Inc., Downers Grove, Ill., USA) according to manufacturer's instructions. […]

Alzheimer's disease = settings: phase II clinical trial; cited from earlier work
aggregated huntingtin = assay: Western blotting of aggregated huntingtin in whole-brain extracts of R6/2 mice; type: in vivo, mouse; settings: 8 weeks daily oral CQ 30 mg/kg/day
Experimental: Whole mouse brains were homogenized in 50 mM Tris-HCl (pH 7.4), 150 mM NaCl, 1% v/v Triton X-100 and complete protease inhibitor cocktail. Brain homogenate was pre-cleared by centrifuging at 7,500 g for 90 s at 4° C. The supernatant was passed through a 28-gauge needle and boiled in SDS sample buffer for 10 min. Fifty μg of total protein was loaded onto 10% w/v SDS gel containing a 4% w/v stacking gel. Monoclonal antibodies anti-polyglutamine (1:2,000), anti-GAPDH (1:10,000), anti-GFP (1:4,000), and anti-Htt (EM48) in 1:1000 dilution were used for immunoblotting. All western blot experiments were performed at least three times and band intensities were averaged.

Htt exon1-Q25-egfp = assay: Fluorescence microscopy of transfected PC12 cells expressing Htt exon1-Q25-egfp; type: cell-based; settings: CQ 4 μM, 48 hours post-transfection
Source text: as §1
Concordant with this reduction in mutant protein expression, cell survival was improved by CQ in a dose dependent fashion with a half maximal effect at 1-2 μM (FIG. 2b). Cell death began to increase at 8 μM, likely due to dose-dependent toxic effects of CQ.

Structure (SMILES): Oc1c(I)cc(Cl)c2cccnc12 [CQ, 5-chloro-7-iodo-8-hydroxy-quinoline]
- inhibition of egfp-alone expression (egfp-alone): not observed
- average lifespan (R6/2 mice): 92 days
- increase in longevity over the littermate control group (R6/2 mice): 20%
- CQ toxicity (Alzheimer's disease): no significant CQ toxicity
- effects on Alzheimer's disease (Alzheimer's disease): early positive effects
- reduction in the quantity of aggregated huntingtin (aggregated huntingtin): 3.9 fold
- fluorescent product of Htt exon1-Q25-egfp (Htt exon1-Q25-egfp): unaffected
